The test system of assay [1] is phosphorylated AKT Ser473 (pAKT S473), mTORC2 activity, PC3 cells. Kind of assay: mTOR target engagement assay, immunofluorescent cell-based, pAKT S473 readout (mTORC2 activity). The method, boiled down: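 After blocking, cells were stained overnight at 4 °C with anti-pAKT S473 antibody, then a fluorescent secondary; inhibition was read as reduced fluorescence intensity.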

Assay [2] concerns phosphorylated 4E-BP1 Thr37/46 (p4E-BP1 Thr37/46), mTORC1 activity, PC3 cells. Kind of assay: mTOR target engagement assay, immunofluorescent cell-based, p4E-BP1 Thr37/46 readout (mTORC1 activity). The following applies: read-out: p4E-BP1 Thr37/46 IC50. The method, boiled down:
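Cell-based immunofluorescence in PC3 cells: serially diluted compounds (0.25% DMSO, 5% FBS) applied for ninety minutes at 37° C before fixation and overnight 4° C staining of p4E-BP1 Thr37/46. Untreated DMSO wells set maximal phosphorylation; IC50 obtained by logistic fitting.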

[3] abbreviates: Homo sapiens, PC-3, PC3 cells, compound treatment ninety minutes at 37° C.
Where [4] appears, read: Homo sapiens, PC-3, Table 3-1, PC3 cells.
[5] abbreviates: Homo sapiens, PC-3, Table 6-1, PC3 cells.

Molecules are shown by their SMILES. Read-outs that look alike come from different tables or passages of the source.

Regarding `CC(=O)c1c([C@@H]2C[C@H]3CC[C@@H](C2)N3C(=O)c2nnc[nH]2)nc2c(-c3ccc(-c4nn(C)cc4F)nc3)cnn2c1N` [Compound 1.1.106, 1-(5-((1R,3s,5S)-8-(4H-1,2,4-triazole-3-carbonyl)-8-azabicyclo[3.2.1]octan-3-yl)-7-amino-3-(6-(4-fluoro-1-methyl-1H-pyrazol-3-yl)pyridin-3-yl)pyrazolo[1,5-a]pyrimidin-6-yl)ethanone], the IC50 in assay [1] (setting [3]) and in assay [2] (setting [3]) was 1 to 100 nM each time.

As to `COc1ccc(-c2ccc(-c3cnn4c(N)c(S(C)(=O)=O)c([C@@H]5C[C@H]6CC[C@@H](C5)N6C(=O)c5nnc[nH]5)nc34)cn2)cn1` [Compound 3.164, ((1R,3s,5S)-3-(7-amino-3-(6′-methoxy-2,3′-bipyridin-5-yl)-6-(methylsulfonyl)pyrazolo[1,5-a]pyrimidin-5-yl)-8-azabicyclo[3.2.1]octan-8-yl)(4H-1,2,4-triazol-3-yl)methanone], the IC50 in assay [1] (setting [4]) and in assay [2] (setting [4]) was 100 to 1000 nM in each case.

Take `CS(=O)(=O)c1c([C@@H]2C[C@H]3CC[C@@H](C2)N3C(=O)c2nnc[nH]2)nc2c(-c3ccc(-c4cccc(F)c4)nc3)cnn2c1N` [Compound 3.46, ((1R,3s,5S)-3-(7-amino-3-(6-(3-fluorophenyl)pyridin-3-yl)-6-(methylsulfonyl)pyrazolo[1,5-a]pyrimidin-5-yl)-8-azabicyclo[3.2.1]octan-8-yl)(4H-1,2,4-triazol-3-yl)methanone]: the IC50 in assay [1] (setting [4]) and in assay [2] (setting [4]) was 1 to 100 nM throughout.

For `Nc1cc([C@@H]2C[C@H]3CC[C@@H](C2)N3C(=O)[C@H]2CCCN2)nc2c(-c3ccc(-c4ccccc4)nc3)cnn12` [Compound 2.19, ((1R,3S,5S)-3-(7-amino-3-(6-phenylpyridin-3-yl)pyrazolo[1,5-a]pyrimidin-5-yl)-8-azabicyclo[3.2.1]octan-8-yl)((R)-pyrrolidin-2-yl)methanone], the IC50 in assay [1] (setting [3]) lay within 100 to 1000 nM; in assay [2] (setting [3]) it was 1000 to 10000 nM.

As to `CC(=O)c1c([C@@H]2C[C@H]3CC[C@@H](C2)N3C(=O)c2nnc[nH]2)nc2c(-c3cnc(NC4CC4)nc3)cnn2c1N` [Compound 8.49, 1-(5-((1R,3s,5S)-8-(4H-1,2,4-triazole-3-carbonyl)-8-azabicyclo[3.2.1]octan-3-yl)-7-amino-3-(2-(cyclopropylamino)pyrimidin-5-yl)pyrazolo[1,5-a]pyrimidin-6-yl)ethanone], the IC50 in assay [1] (PC3 cells) and in assay [2] (PC3 cells) was 1 to 100 nM throughout.

As for `CC(=O)c1c([C@@H]2C[C@H]3CC[C@@H](C2)N3C(=O)c2cnccc2O)nc2c(-c3ccc(-c4ccccc4)nc3)cnn2c1N` [Compound 1.1.51, 1-(7-amino-5-((1R,3s,5S)-8-(4-hydroxynicotinoyl)-8-azabicyclo[3.2.1]octan-3-yl)-3-(6-phenylpyridin-3-yl)pyrazolo[1,5-a]pyrimidin-6-yl)ethanone], the IC50 in assay [1] (setting [3]) and in assay [2] (setting [3]) was 100 to 1000 nM throughout.

For the compound `COCCOc1ccc(-c2ccc(-c3cnn4c(N)c(C(C)=O)c([C@@H]5C[C@H]6CC[C@@H](C5)N6C(=O)c5nnc[nH]5)nc34)cn2)cc1` [Compound 1.1.69, 1-(5-((1R,3s,5S)-8-(4H-1,2,4-triazole-3-carbonyl)-8-azabicyclo[3.2.1]octan-3-yl)-7-amino-3-(6-(4-(2-methoxyethoxy)phenyl)pyridin-3-yl)pyrazolo[1,5-a]pyrimidin-6-yl)ethanone], the IC50 in assay [1] (setting [3]) and in assay [2] (setting [3]) was 100 to 1000 nM each time.

With `CNC(=O)Nc1ccc(-c2cnn3c(N)cc([C@@H]4C[C@H]5CC[C@@H](C4)N5C(=O)c4nnc[nH]4)nc23)cc1` [Compound 8.80, 1-(4-(5-((1R,3s,5S)-8-(4H-1,2,4-triazole-3-carbonyl)-8-azabicyclo[3.2.1]octan-3-yl)-7-aminopyrazolo[1,5-a]pyrimidin-3-yl)phenyl)-3-methylurea], the IC50 in assay [1] (Homo sapiens, PC-3, PC3 cells) was above 10000 nM; in assay [2] (Homo sapiens, PC-3, PC3 cells) it was above 10000 nM.

As for `Nc1c(C2CC2)c([C@H]2CC3CC[C@H](C2)N3C(=O)c2nnc[nH]2)nc2c(-c3cnc4c(c3)CCC4O)cnn12` (stereo partly drawn) [Compound 7.61, ((1R,3s,5S)-3-(7-amino-6-cyclopropyl-3-(7-hydroxy-6,7-dihydro-5H-cyclopenta[b]pyridin-3-yl)pyrazolo[1,5-a]pyrimidin-5-yl)-8-azabicyclo[3.2.1]octan-8-yl)(4H-1,2,4-triazol-3-yl)methanone], the IC50 in assay [1] (Homo sapiens, PC-3, PC3 cells) was 1 to 100 nM; in assay [2] (Homo sapiens, PC-3, PC3 cells), 1 to 100 nM.

Turning to `Nc1c(C2CC2)c([C@@H]2C[C@H]3CC[C@@H](C2)N3C(=O)c2nnc[nH]2)nc2c(-c3ccc(-c4ncc[nH]4)c(F)c3)cnn12` [Compound 6.36, ((1R,3s,5S)-3-(7-amino-6-cyclopropyl-3-(3-fluoro-4-(1H-imidazol-2-yl)phenyl)pyrazolo[1,5-a]pyrimidin-5-yl)-8-azabicyclo[3.2.1]octan-8-yl)(4H-1,2,4-triazol-3-yl)methanone], the IC50 in assay [1] (setting [5]) and in assay [2] (setting [5]) was 1 to 100 nM throughout.

With `CC(=O)c1c([C@@H]2C[C@H]3CC[C@@H](C2)N3C(=O)c2nnc[nH]2)nc2c(-c3cnc(-c4ccn(C)n4)c(C)c3)cnn2c1N` [Compound 1.1.114, 1-(5-((1R,3s,5S)-8-(4H-1,2,4-triazole-3-carbonyl)-8-azabicyclo[3.2.1]octan-3-yl)-7-amino-3-(5-methyl-6-(1-methyl-1H-pyrazol-3-yl)pyridin-3-yl)pyrazolo[1,5-a]pyrimidin-6-yl)ethanone], the IC50 in assay [1] (setting [3]) and in assay [2] (setting [3]) was 1000 to 10000 nM throughout.

As for `COc1ccc(-c2ccc(-c3cnn4c(N)c(C(C)=O)c([C@@H]5C[C@H]6CC[C@@H](C5)N6C(=O)c5nnc[nH]5)nc34)cn2)c(F)c1F` [Compound 1.1.65, 1-(5-((1R,3s,5S)-8-(4H-1,2,4-triazole-3-carbonyl)-8-azabicyclo[3.2.1]octan-3-yl)-7-amino-3-(6-(2,3-difluoro-4-methoxyphenyl)pyridin-3-yl)pyrazolo[1,5-a]pyrimidin-6-yl)ethanone], the IC50 in assay [1] (setting [3]) and in assay [2] (setting [3]) was 1 to 100 nM in each case.

`COc1ccc(-c2ccc(-c3cnn4c(N)c(C(C)=O)c([C@@H]5C[C@H]6CC[C@@H](C5)N6C(=O)CO)nc34)cn2)cc1F` [Compound 1.1.58, 1-((1R,3s,5S)-3-(6-acetyl-7-amino-3-(6-(3-fluoro-4-methoxyphenyl)pyridin-3-yl)pyrazolo[1,5-a]pyrimidin-5-yl)-8-azabicyclo[3.2.1]octan-8-yl)-2-hydroxyethanone]: the IC50 in assay [1] (setting [3]) and in assay [2] (setting [3]) was 100 to 1000 nM in each case.

Turning to `Nc1cc([C@@H]2C[C@H]3CC[C@@H](C2)N3C(=O)c2nnc[nH]2)nc2c(-c3ccc(-c4ccc(C(F)(F)F)cc4F)nc3)cnn12` [Compound 2.17, ((1R,3s,5S)-3-(7-amino-3-(6-(2-fluoro-4-(trifluoromethyl)phenyl)pyridin-3-yl)pyrazolo[1,5-a]pyrimidin-5-yl)-8-azabicyclo[3.2.1]octan-8-yl)(4H-1,2,4-triazol-3-yl)methanone], the IC50 in assay [1] (setting [3]) and in assay [2] (setting [3]) was 1000 to 10000 nM in each case.

For the compound `CC(=O)c1c([C@@H]2C[C@H]3CC[C@@H](C2)N3C(=O)c2nnc[nH]2)nc2c(-c3cnc(C(C)(C)O)nc3)cnn2c1N` [Compound 1.1.180, 1-(5-((1R,3s,5S)-8-(4H-1,2,4-triazole-3-carbonyl)-8-azabicyclo[3.2.1]octan-3-yl)-7-amino-3-(2-(2-hydroxypropan-2-yl)pyrimidin-5-yl)pyrazolo[1,5-a]pyrimidin-6-yl)ethanone], the IC50 in assay [1] (setting [3]) and in assay [2] (setting [3]) was 100 to 1000 nM throughout.

In the case of `CC(=O)c1c([C@@H]2C[C@H]3CC[C@@H](C2)N3C(=O)c2nnc[nH]2)nc2c(-c3ccc(-n4cnc(C)c4)nc3)cnn2c1N` [Compound 1.1.128, 1-(5-((1R,3s,5S)-8-(4H-1,2,4-triazole-3-carbonyl)-8-azabicyclo[3.2.1]octan-3-yl)-7-amino-3-(6-(4-methyl-1H-imidazol-1-yl)pyridin-3-yl)pyrazolo[1,5-a]pyrimidin-6-yl)ethanone], the IC50 in assay [1] (setting [3]) and in assay [2] (setting [3]) was above 10000 nM throughout.

As for `CS(=O)(=O)c1c([C@@H]2C[C@H]3CC[C@@H](C2)N3C(=N)NO)nc2c(-c3ccc(-c4ccccc4)nc3)cnn2c1N` [Compound 8.72, (1R,3s,5S)-3-(7-amino-6-(methylsulfonyl)-3-(6-phenylpyridin-3-yl)pyrazolo[1,5-a]pyrimidin-5-yl)-N-hydroxy-8-azabicyclo[3.2.1]octane-8-carboximidamide], the IC50 in assay [1] (PC3 cells) and in assay [2] (PC3 cells) was 1000 to 10000 nM throughout.

In the case of `CCc1ccc(-c2cnn3c(N)c(C(C)=O)c([C@@H]4C[C@H]5CC[C@@H](C4)N5C(=O)c4nnc[nH]4)nc23)cn1` [Compound 1.1.99, 1-(5-((1R,3s,5S)-8-(4H-1,2,4-triazole-3-carbonyl)-8-azabicyclo[3.2.1]octan-3-yl)-7-amino-3-(6-ethylpyridin-3-yl)pyrazolo[1,5-a]pyrimidin-6-yl)ethanone], the IC50 in assay [1] (setting [3]) and in assay [2] (setting [3]) was 1 to 100 nM in each case.

In the case of `CS(=O)(=O)c1c([C@@H]2C[C@H]3CC[C@@H](C2)N3C(=O)c2cc(CN)n[nH]2)nc2c(-c3ccc(-c4ccccc4)nc3)cnn2c1N` [Compound 3.85, ((1R,3s,5S)-3-(7-amino-6-(methylsulfonyl)-3-(6-phenylpyridin-3-yl)pyrazolo[1,5-a]pyrimidin-5-yl)-8-azabicyclo[3.2.1]octan-8-yl)(3-(aminomethyl)-1H-pyrazol-5-yl)methanone], the IC50 in assay [1] (setting [4]) and in assay [2] (setting [4]) was 1 to 100 nM each time.

The record behind these values is patent US9227971B2, “Pyrazolo[1,5-a]pyrimidine compounds as mTOR inhibitors” (Merck Sharp & Dohme Corp., priority 2010, dated 2016).
